# Results published in patent publication US10014546B2 (priority 2012, dated 2018).
# Like-named read-outs stand apart in the source and are kept apart here.
# Columns and labels:
# [1] = assay type: physicochemical
# [2] = physchem
compound,measurement,setting,value
"O.O.O.O.O.O.[Fe+3] [Fe^III/II(H2O)6, reference compound]","E1/2, V vs. RHE",[1]; pH 0,+0.77 V vs. RHE
titanium mono-lactate [Ti^IV/III(lactate)1],"E1/2, V vs. RHE",[1]; pH 3.6,−0.34 V vs. RHE
same,"E1/2, V vs. RHE",[1]; pH 5.6,−0.40 V vs. RHE
same,"E1/2, V vs. RHE",[1]; pH 9,−0.54 V vs. RHE
Sodium titanium(IV) triscitrate [Ti(citrate)3^2−/3−],"E1/2, V vs. RHE",[1]; pH 5,−0.04 V vs. RHE
iron tris-malate [Fe^III/II(malate)3],"E1/2, V vs. RHE",[1]; pH 9.2,−0.30 V vs. RHE
"Oc1cccc2c1[O][Ti-2]13([O]2)([O]c2cccc(O)c2[O]1)[O]c1cccc(O)c1[O]3.[K+].[Na+] [Ti(pyrogallate)^2−/3−, Sodium potassium titanium(IV) trispyrogallate]","E1/2, V vs. RHE",[1]; pH 9.8,−0.55 V vs. RHE
"CC(O)C(=O)[O-].CC(O)C(=O)[O-].O=C([O-])c1ccccc1O.[Ti+3] [Ti^IV/III(lactate)2(salicylate), titanium bis-lactate mono-salicylate]",solubility,[2],≥ 1500 mM
titanium bis-lactate [Ti^IV/III(lactate)2],"E1/2, V vs. RHE",[1]; pH 2,−0.03 V vs. RHE
same,"E1/2, V vs. RHE",[1]; pH 3.6,−0.40 V vs. RHE
same,"E1/2, V vs. RHE",[1]; pH 9,−0.40 V vs. RHE
iron tris-(α-hydroxyacetate) [Fe^III/II(α-hydroxyacetate)3],"E1/2, V vs. RHE",[1]; pH 8.1,−0.50 V vs. RHE
